Test results reported in patent US20190022117A1, “COMBINATION THERAPY” (NuCana plc, priority 2015, published 2019).

Tested on: SKOV3 cells
Test: Sulforhodamine B (SRB) assay, single agent
Format: cell-based
Conditions: 24 hours exposure, SRB assay on day 4
Method: SKOV3 cells were purchased from American Type Culture Collection (ATCC). They were cultured at 37° C. and 5% CO2 in Gibco™ RMPI Medium 1640+GlutaMAX™-I (Life Technologies; 61870-010) with 10% Gibco™ FBS (Life Technologies; 10270-106) and 1% Gibco™ Penicillin-Streptomycin (Life Technologies; Ser. No. 15/140,122), known as complete medium, in a cell culture flask. Cisplatin was purchased from TEVA UK Limited (PL 00289/1146). Fluvastatin and Sulforaphane were both purchased from Merck Millipore Corporation (Catalogue numbers 344096 and 574215 respectively). (S)-NUC-1031 was provided by NuCana® Ltd.
SKOV3 cells were plated at 250 cells in 200 μl per well in the middle 60 wells of Costar® 3596 96-well plates, with the outer 36 wells filled with 200 μl PBS each. The cells were allowed to grow in complete medium for 48 hours before different drug compounds were added in. For single agent, cisplatin, (S)-NUC-1031, fluvastatin and sulforaphane in complete medium at 10 different concentrations were added into the middle 60 wells (Day 0). Each concentration was loaded in sextuplicate. Cells were exposed to the compounds for 24 hours and the compounds were replaced by pure complete medium. The experiment with fluvastatin was repeated with 4-day exposure instead of 24 hours. The plates were fixed with 50 μl 25% TCA solution at 4° C. for 60 minutes on day 4 after the drug compounds were added for Sulforhodamine B assay (see below).
After adding the TCA solution, the plates were washed under running tap water 10 times and were allowed to dry in the oven at 50° C. The cells were then stained with 50 μl SRB dye, and the dye was washed off with 1% glacial acetic acid for 4 times 30 minutes after SRB addition. The plates were then dried in the oven. SRB dye was allowed to dissolve in 150 μl 10 mM Tris buffer solution for 60 minutes on a rocker. The plates were read on Biohit BP800 Microplate Reader (Biohit Healthcare) and the absorbance was measured at 540 nm. […]

## C[C@H](NP(=O)(OC[C@H]1O[C@@H](n2ccc(N)nc2=O)C(F)(F)[C@H]1O)Oc1ccccc1)C(=O)OCc1ccccc1 (stereo partly drawn) [NUC-1031, 2′-Deoxy-2′,2′-difluoro-D-cytidine-5′-O-[phenyl (benzoxy-L-alaninyl)] phosphate]
  IC50: could not be calculated due to unobservable inhibitory effects
